Source: patent US12145917B2, “Crystalline forms of a compound for treating or preventing gout or hyperuricemia” (Arthrosi Therapeutics, Inc., priority 2019, dated 2024)

Assays:
[1] = cited from earlier work
[2] = molecular target: T1, human URAT1 uptake transporter (Homo sapiens, UniProt Q96S37); assay: In vitro interaction study with the human URAT1 uptake transporter (uric acid uptake in MDCKII cells); type: cell-based; settings: MDCK-II, at a concentration of 10 μM, read-out: Inhibition of URAT1 mediated uric acid accumulation
T1 construct: expressed in transfected cells
T1 sequence (Q96S37 1-553): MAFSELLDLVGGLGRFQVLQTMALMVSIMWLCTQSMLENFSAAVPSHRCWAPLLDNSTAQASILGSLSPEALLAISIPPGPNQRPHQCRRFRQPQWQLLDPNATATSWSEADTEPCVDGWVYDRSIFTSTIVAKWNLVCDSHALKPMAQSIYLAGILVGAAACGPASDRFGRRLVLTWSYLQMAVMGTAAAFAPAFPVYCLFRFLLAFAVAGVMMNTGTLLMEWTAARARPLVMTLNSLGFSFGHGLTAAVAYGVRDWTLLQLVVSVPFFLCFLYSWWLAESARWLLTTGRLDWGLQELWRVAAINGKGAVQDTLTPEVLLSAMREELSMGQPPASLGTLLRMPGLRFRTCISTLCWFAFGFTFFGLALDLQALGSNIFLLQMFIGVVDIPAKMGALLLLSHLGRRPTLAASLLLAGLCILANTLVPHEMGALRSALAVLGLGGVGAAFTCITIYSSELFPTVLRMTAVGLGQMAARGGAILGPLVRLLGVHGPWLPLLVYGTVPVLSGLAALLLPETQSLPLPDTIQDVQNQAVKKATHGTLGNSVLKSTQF
Description: Uptake experiments were performed using MDCKII cells stably expressing the human URAT1 uptake transporter. Cells were cultured at 37±1° C. in an atmosphere of 95:5 air:CO2 and were plated onto standard 96-well tissue culture plates at the cell number described in Table 5.
Radiolabeled probe substrate transport was determined by measuring an aliquot (35 μL) from each well for liquid scintillation counting.

[3] = Stability in human microsomes; type: in vitro ADME
CYP2C9 = CYP2C9 (Homo sapiens, UniProt P11712); assay: CYP2C9 metabolic pathway / metabolite formation; type: in vitro ADME
CYP2C9, sequence (P11712 whole entry): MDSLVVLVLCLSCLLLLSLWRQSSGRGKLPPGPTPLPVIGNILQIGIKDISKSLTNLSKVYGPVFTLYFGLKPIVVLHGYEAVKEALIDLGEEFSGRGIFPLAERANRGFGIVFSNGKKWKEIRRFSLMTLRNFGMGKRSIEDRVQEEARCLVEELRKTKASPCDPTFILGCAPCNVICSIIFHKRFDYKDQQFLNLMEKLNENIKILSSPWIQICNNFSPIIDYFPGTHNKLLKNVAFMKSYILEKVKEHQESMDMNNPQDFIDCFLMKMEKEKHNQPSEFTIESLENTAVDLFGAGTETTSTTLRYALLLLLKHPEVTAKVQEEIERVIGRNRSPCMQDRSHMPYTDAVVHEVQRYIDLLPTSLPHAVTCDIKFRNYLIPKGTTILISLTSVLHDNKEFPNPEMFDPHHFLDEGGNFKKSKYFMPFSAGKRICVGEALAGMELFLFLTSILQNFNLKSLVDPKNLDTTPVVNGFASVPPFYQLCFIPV

[4] = Dynamic vapor sorption (DVS); type: physicochemical; settings: for Post-GVS analysis by XRPD (change of form): after DVS cycle 0-90-0% RH; for Moisture uptake (DVS): between 0-90% RH
Description: DVS studies were performed using a DVS Intrinsic (SMS, UK) or IGASORP (Hiden, UK). 10 to 50 mg of compound was transferred into the DVS and the weight change recorded with respect to a varying atmospheric humidity at 25° C. using the following parameters:
Drying at 40° C. until dm/dt<±0.002%/min
Min time: 30 min, Max time: 120 min (for IGASORP)
Characterize the sample after the DVS experiment by XRPD

Row | Compound | inhibition at 10 µM [2] | Hygroscopicity ([4]; DVS, 25° C.) | Post-GVS analysis by XRPD (change of form) [4] | Moisture uptake (DVS) ([4]; 25° C.) | also measured
1 | CCc1oc2ccccc2c1C(=O)c1cc(Br)c(O)c(Br)c1 [Benzbromarone] | 98% |  |  |  | Serum uric acid (sUA) level reached ([1]; chronic therapy): < 6 mg/dL; Hepatotoxicity ([1]; in certain patients): associated with hepatotoxicity
2 | [2H]c1c([2H])c([2H])c2c(C(=O)c3cc(Br)c(O)c(Br)c3)c(C(C)O)oc2c1[2H] (centres unmarked) [Compound 1, (3,5-dibromo-4-hydroxyphenyl)(2-(1-hydroxyethyl)benzofuran-3-yl-4,5,6,7-d4)methanone] | 100% |  |  |  | Stability in human microsomes compared with benzbromarone [3]: more stable than benzbromarone in human microsomes; Formation of 6-OH benzbromarone and 5,6-di-OH benzbromarone metabolites (CYP2C9): not formed; CYP2C9 metabolic pathway (CYP2C9; compared with benzbromarone): significantly reduced
3 | [2H]c1c([2H])c([2H])c2c(C(=O)c3cc(Br)c(O)c(Br)c3)c(C(C)O)oc2c1[2H] (centres unmarked) [Form 1, (3,5-dibromo-4-hydroxyphenyl)(2-(1-hydroxyethyl)benzofuran-3-yl-4,5,6,7-d4)methanone] |  |  |  |  | RH at which the dehydrated form converted to hydrated form ([4]; DVS, 25° C.): ≥ 20%
4 | [2H]c1c([2H])c([2H])c2c(C(=O)c3cc(Br)c(O)c(Br)c3)c(C(C)O)oc2c1[2H] (centres unmarked) [Form 2, (3,5-dibromo-4-hydroxyphenyl)(2-(1-hydroxyethyl)benzofuran-3-yl-4,5,6,7-d4)methanone] |  | non-hygroscopic | no change | 0.08% | 
5 | [2H]c1c([2H])c([2H])c2c(C(=O)c3cc(Br)c(O)c(Br)c3)c(C(C)O)oc2c1[2H] (centres unmarked) [Form 3, (3,5-dibromo-4-hydroxyphenyl)(2-(1-hydroxyethyl)benzofuran-3-yl-4,5,6,7-d4)methanone] |  | non-hygroscopic | no change | 0.04% | 
